From article PMC7004140, “In vitro hepatotoxicity of Petasites hybridus extract (Ze 339) depends on the concentration, the cytochrome activity of the cell system, and the species used” (Phytotherapy Research, 2019)

Columns and labels:
CYP2C8 (human) = target: T1, CYP2C8 (human) (Homo sapiens, UniProt P10632); assay: Metabolism by isolated human CYP2C8; format: in vitro ADME; conditions: petasins 20 μM, 60 min
T1 construct: purchased BD Gentest (Switzerland); host or cells: baculovirus expression system
T1 sequence (P10632 1-490): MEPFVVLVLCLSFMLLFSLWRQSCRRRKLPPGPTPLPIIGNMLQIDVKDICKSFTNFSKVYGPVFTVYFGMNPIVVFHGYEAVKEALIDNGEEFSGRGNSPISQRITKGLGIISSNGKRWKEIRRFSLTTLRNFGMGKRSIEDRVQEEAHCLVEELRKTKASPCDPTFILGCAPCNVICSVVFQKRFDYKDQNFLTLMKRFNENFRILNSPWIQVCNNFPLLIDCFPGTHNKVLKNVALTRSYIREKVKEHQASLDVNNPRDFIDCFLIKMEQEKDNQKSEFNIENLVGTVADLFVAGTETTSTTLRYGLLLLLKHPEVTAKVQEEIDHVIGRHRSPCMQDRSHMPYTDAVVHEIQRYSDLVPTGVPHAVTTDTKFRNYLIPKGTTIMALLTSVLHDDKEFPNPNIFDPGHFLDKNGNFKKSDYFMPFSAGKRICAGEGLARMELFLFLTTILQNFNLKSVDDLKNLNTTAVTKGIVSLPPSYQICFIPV
Text: (§1) The metabolism of petasin, isopetasin, and neopetasin was investigated using three different S9 fractions originating from three different species (isolated from rat, dog, and human liver homogenates containing cytochrome P450 isoforms) and isolated cytochromes of two different species (human and rat; rat analogues of the respective human cytochromes were used). For the expression of the different cytochromes, a baculovirus expression system was used according to supplier's manual. The S9 fractions or respectively single P450 cytochromes were used to mimic the liver metabolism by in vitro incubation.
The assay was carried out in triplicate in 1.5 ml glass vials with a final concentration of 20 μM of petasin, isopetasin, and neopetasin. The incubation was performed in a 37°C warm water bath. S9 fractions were thawed slowly on ice. Four different approaches were pursued by testing: (a) petasin, neopetasin, and isopetasin before (0 min) and after 60 min incubations with S9 fraction; (b) petasin, neopetasin, and isopetasin without S9 fraction after 60 min incubation; (c) vehicle as negative controls; and (d) cofactors of S9 fraction after 60‐min incubation.
A mixture of NADPH regeneration systems A (20‐fold) and B (100‐fold), phosphate buffer, and H2O was added, preincubated at 37°C, and shaken gently for 5 min. Afterwards, the recommended amount between 10 and 40 pmol/ml of enzyme or enzyme mixture was added according to manufacturer's instruction and incubated for further 60 min at 37°C and gently shaken. Afterwards, the reactions were stopped by addition of acetonitrile (400 μl). For the control sample, acetonitrile was added at 0 min incubation. The samples were centrifuged for 3 min at 10,000 × g. The supernatant was transferred to high‐performance liquid chromatography vials and analyzed by ultra‐performance liquid chromatography mass spectrometry (UPLC/MS). The UPLC analysis was performed with an UPLC Acquity H Class from Waters (Waters Corporation, Switzerland) including a quaternary high‐pressure gradient pump, an automatic sample injector, and a column thermostat. […]

HepaRG cells = assay: WST-1 metabolic activity (cytotoxicity) in HepaRG cells; format: cell-based, human; conditions: 250 μM, 4 hr
Description: (§2) HepG2 and H‐4‐II‐E cells were differentiated for 24 hr. HepaRG cells were directly seeded in precoated 96‐well microtiter plates and were incubated in William's medium with general purpose supplements according to manufacturer's manual until adherence. All cells were treated with Ze 339 (up to 100 μg/ml) or petasin, isopetasin, neopetasin, petasol, isopetasol, petasin mixture, fatty acid mixture, and reconstituted extracts (up to 250 μM) for 4 hr.
(§3) In the three cell lines, cytotoxicity was defined as a decrease in metabolic activity of ≥20% in the WST‐1 assay. At the end of the experiment, 10 μl WST‐1 reagent was added to each well. Plates were then incubated for 2 hr to allow for the reduction of WST‐1 reagent. Absorbance was measured using a microplate absorbance reader (Infinite M 200, Tecan Trading Ltd., Switzerland) at 450 nm, reference wavelength of 620 nm. Due to some matrix effect, the lowest concentration (0.02 μg/ml for Ze 339 and 3.9 μM for single constituents and mixtures) of each substance tested was defined as 100% metabolic activity. Results were expressed as percentage of the control metabolic activity, and data were presented as mean values ± SEM (n = 3–6).
(§4) Concentration‐response analysis was done using the sigmoidal Hill equation: E(t) = E0 − Emax × C(t)^N/(IC50 ^N + C(t)^N), where E is the effect at time t, E0 the effect at baseline (time = 0), IC50 the concentration yielding 50% of the maximal effect (Emax), and N denotes the sigmoidicity coefficient (Origin 2017 Software). For statistical analysis, analysis of variance with Dunnett's multicomparison test was used to correct for multiplicity of testing (IBM SPSS Statistics software, version 25, IBM Corp., USA). The level of significance was ^* p < .05, ^** p < .01 and ^*** p < .001; NS = no significance.

HepG2 cells = assay: WST-1 metabolic activity (cytotoxicity) in HepG2 cells; format: cell-based, human; conditions: HepG2, 250 μM (highest concentration), 4 hr
Description: as §2, §3, §4

CYP3A2 (rat) = target: T2, CYP3A2 (rat) (Rattus norvegicus, UniProt P05183); assay: Metabolism by isolated rat CYP3A2; format: in vitro ADME; conditions: petasins 20 μM, 60 min
T2 construct: purchased BD Gentest (Switzerland); host or cells: baculovirus expression system
T2 sequence (P05183 1-504): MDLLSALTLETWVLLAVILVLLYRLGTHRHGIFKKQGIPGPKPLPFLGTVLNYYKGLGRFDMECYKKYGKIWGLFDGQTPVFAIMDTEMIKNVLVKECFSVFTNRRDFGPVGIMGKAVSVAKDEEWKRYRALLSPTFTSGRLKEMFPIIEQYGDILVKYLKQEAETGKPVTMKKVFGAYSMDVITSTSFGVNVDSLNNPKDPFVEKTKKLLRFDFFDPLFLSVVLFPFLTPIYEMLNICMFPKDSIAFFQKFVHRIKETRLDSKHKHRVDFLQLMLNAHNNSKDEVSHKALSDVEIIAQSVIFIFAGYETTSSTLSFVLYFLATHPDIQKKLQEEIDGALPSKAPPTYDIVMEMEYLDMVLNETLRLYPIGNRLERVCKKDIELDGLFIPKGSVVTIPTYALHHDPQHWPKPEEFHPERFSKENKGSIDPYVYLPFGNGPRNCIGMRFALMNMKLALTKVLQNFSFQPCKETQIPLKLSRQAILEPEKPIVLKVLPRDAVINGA
Text: as §1
The assay was carried out in triplicate in 1.5 ml glass vials with a final concentration of 20 μM of petasin, isopetasin, and neopetasin. The incubation was performed in a 37°C warm water bath. S9 fractions were thawed slowly on ice. […]
A mixture of NADPH regeneration systems A (20‐fold) and B (100‐fold), phosphate buffer, and H2O was added, preincubated at 37°C, and shaken gently for 5 min. […] The supernatant was transferred to high‐performance liquid chromatography vials and analyzed by ultra‐performance liquid chromatography mass spectrometry (UPLC/MS). […]

| SMILES | extent of metabolism by CYP2C8 (human) (CYP2C8 (human)) [%] | metabolic activity (HepaRG cells) [%] | metabolic activity compared with the reference concentration (3.9 μM) (HepG2 cells) [%] | extent of metabolism by CYP3A2 (rat) (CYP3A2 (rat)) [%] |
| --- | --- | --- | --- | --- |
| C=C(C)[C@H]1C[C@@]2(C)C(=CC1=O)CC[C@@H](OC(=O)/C(C)=C\C)[C@@H]2C [neopetasin] | 71 | 28.9 | 66.8 | 46 |
| C/C=C(/C)C(=O)O[C@@H]1CCC2=CC(=O)C(=C(C)C)C[C@]2(C)[C@H]1C [isopetasin] | 44 | 73 | 65.6 | 73 |
| C=C(C)[C@@H]1C[C@@]2(C)C(=CC1=O)CC[C@@H](OC(=O)/C(C)=C\C)[C@@H]2C [petasin] | 54 | 37.7 | 60.9 |  |
